{"source": "paper PMC4109680", "about": "“Identification and Preclinical Pharmacology of the γ-Secretase Modulator BMS-869780” (International Journal of Alzheimer's Disease, 2014)", "tested_on": "Aβ peptides (H4-APPsw)", "experiment": "Aβ peptide profile in H4-APPsw cultures by MALDI-TOF mass spectrometry and urea gel western blot", "format": "cell-based, human", "protocol": "For western blotting of Aβ peptides from H4-APPsw cell cultures, Aβ was immunoprecipitated directly from the cell culture medium and was eluted from the protein G beads by addition of lithium dodecyl sulfate (LDS) electrophoresis sample buffer (Invitrogen). Aβ peptides were separated by gel electrophoresis in the presence of 8 M urea, transferred to PVDF membrane, and detected by western blotting using monoclonal 26D6-HRP conjugate.\nH4-APPsw cell cultures were grown in T-75 flasks until 75% confluent and rinsed with Dulbecco's phosphate buffered saline (DPBS; Gibco cat number 14109), and 20 mL of DMEM supplemented with L-glutamine (2 mM), geneticin, penicillin, streptomycin, and DMSO with or without BMS-869780 was added (final concentration of DMSO was 0.2%). After incubation for 24 hours at 37°C in 5% CO2, culture medium was removed, centrifuged to remove cells, and frozen in aliquots at −80°C. For immunoprecipitation, aliquots of cell medium (4 mL) were thawed, followed by the addition of protease inhibitor cocktail (Sigma P-8340) to a final concentration of 1%, 60 ng of [^15N]-Aβ1-40 synthetic peptide (rPeptide, 1101-1, Athens, GA), 30 μg of monoclonal 26D6, and 15 μg of monoclonal 4G8. After incubation for 20 min on ice, 80 μL of protein G agarose beads (Pierce Rockford, IL) was added, and incubation was continued overnight at 4°C. […]\nFigure 3 BMS-869780 increased the levels of the shorter peptides Aβ1-38 and Aβ1-37. (a) Top panel: an equimolar mix of synthetic peptides Aβ1-37, Aβ1-38, Aβ1-39, Aβ1-40, [^15N]-Aβ1-40, and Aβ1-42 was evaluated by MALDI-TOF mass spectrometry. H4-APPsw cell cultures were treated with vehicle (0.1% DMSO—middle panel) or BMS-869780 (100 nM—bottom panel), [^15N]-Aβ1-40 was added, and Aβ peptides were immunoprecipitated and evaluated by MALDI-TOF mass spectrometry. […] Aβ peptides were separated by gel electrophoresis in the presence of urea and detected by western blotting. […]", "data": [{"smiles": "COc1cc(Nc2nc3n(n2)CCCC[C@H]3c2ccc(F)cc2)ccc1-n1cnc(Cl)c1", "note": "[BMS-869780]", "values": [{"measurement": "Aβ1-37 and Aβ1-38 levels by MALDI mass spectrometry", "setting": "100 nM", "value": "dramatically increased"}, {"measurement": "Aβ1-40 and Aβ1-42 levels by MALDI mass spectrometry", "setting": "100 nM", "value": "essentially undetectable"}, {"measurement": "Aβ1-37 and Aβ1-38 levels by western blot", "setting": "100 nM and 10 nM", "value": "Increased levels"}]}]}
